Consider one substance from US9622429B2, “Method for increasing plant biomass” (BioMass Booster, S.L., priority 2010, dated 2017).

Holding throughout (assay type): cell-based
The subject of one test is Chlorella. Briefly: Microalgae growth in culture, absorbance at 680 nm. Conditions: final concentration of 10^−8 M AM, Guillard F/2 medium, 5% CO2, 12 hours light/12 hours dark. As for the experimental part:
Two identical cultures of Chlorella in Guillard F/2 medium [Guillard, R. R. L. 1975. Culture of phytoplankton for feeding marine invertebrates. pp 26-60. In Smith W. L. and Chanley M. H (Eds.) Culture of Marine Invertebrate Animals. Plenum Press, New York, USA.; Guillard, R. R. L. and Ryther, J. H. 1962. Studies of marine planktonic diatoms. I. Cyclotella nana Hustedt and Detonula confervacea Cleve. Can. J. Microbiol. 8: 229-239] (250 ml each) were prepared in two separate glass flasks. Then, 100 μl of said Guillard F/2 medium were added to a flask and 100 μl of said Guillard F/2 medium containing the synthetic peptide human adrenomedullin (AM) (Phoenix Pharmaceuticals, Burlingame, Calif., USA) in a sufficient amount to achieve a final concentration of 10^−8 M to the other flask.
Air containing 5% CO2 was continuously bubbled in the culture. The flasks were illuminated with a photoperiod of 12 hours light/12 hours dark.
Aliquots from the medium were periodically collected in order to assess the microalgae growth. Absorbance was measured at 680 nm with a Perkin Elmer Lambda 35 UV/Visible spectrofotometer.

The subject of test [1] is Carrot (Daucus carota) calli. Briefly: Callus growth (biomass increase) on medium containing adrenomedullin, carrot. The text has this: (§1) Carrot (Daucus carota) and tobacco (Nicotiana tabacum) calli were supplied by Carolina Biological Supply Company (Burlington, N.C., USA) and kept under sterile conditions in solid callus initiation medium for carrots or for tobacco respectively (also acquired from Carolina Biological). The specific composition thereof is available in the company's catalog. A single callus was split into small fragments and these fragments were weighed under sterile conditions and seeded on fresh medium (solid callus initiation medium acquired from Carolina Biologicals) which contained different concentrations of the synthetic peptide human adrenomedullin (AM) (Phoenix Pharmaceuticals, Burlingame, Calif., USA). After 30 days of growth in the dark, the calli were weighed again and the growth rate was calculated as the quotient of the final weight divided by the initial weight. The dry weight of each sample was calculated by subjecting the calli to an oven drying process at […] for 24 hours.

For test [2], the system named is tobacco (Nicotiana tabacum) calli. The test is described as follows: Callus growth (biomass increase) on medium containing adrenomedullin, tobacco.
From the text: as §1

Setting [3] is: different concentrations of AM, 30 days of growth in the dark.
Where [4] appears, read: oven drying at 250° C. for 24 hours.

In the case of human adrenomedullin [AM], the “microalgae growth (absorbance at 680 nm)” value in the test with Chlorella was “grow up faster and reach the stationary phase sooner than the non-treated microalgae”. Besides, the “most effective concentration of AM for stimulating cell growth” value in test [1] (30 days of growth in the dark) and in test [2] (30 days of growth in the dark) was 10^−10 M throughout. Further, the “growth of the calli (growth rate = final weight / initial weight)” value in test [1] (setting [3]) and in test [2] (setting [3]) was “growth increase in the calli following a dose-dependent response” each time. In addition, the “increase in the biomass when compared with the control” value was determined as 60% in test [1] (optimal dose of AM, 30 days) and 60% in test [2] (optimal dose of AM, 30 days). Further, the “dry weight of the tissue” value in test [1] (setting [4]) and in test [2] (setting [4]) was “differences were maintained” in each case.
